Assay results reported in patent publication US7041470B2, “Method of assaying the susceptibility of biofilms to anti-microbial agents” (University Technologies International, Inc., priority 1996, dated 2006).

Legend:
[1] = test system: staphylococcus aureus biofilm; assay: staphylococcus aureus biofilm on projections, antibiotic treatment, manual cfu count; format: cell-based
Method: (§1) Up to 8 different antibiotics or biocides can be tested by using 1 row (A-H) for each antimicrobial reagent. […] Rinse the remaining projections in PBS using a troughed vessel 20 and place the colonized projections into the 96 well antibiotic plate and incubate overnight at 37° C. […] (3) From the freshly sonicated plate remove 0.02 ml of the medium from each well and spot plate neat; and 0.025 ml from each well to prepare a serial dilution (10^-1 to 10^-6) and spot plate 0.02 ml (dilutions can be done in microtiter plates, one for each antibiotic). Place the plate containing the remaining medium and bacteria to incubate at 37° C., overnight. Day 4: Assay the sessile survival, by for example reading the plate incubated overnight at 490 nm or by counting the colonies on the plates to determine the actual number of surviving bacteria, or by using some other method known in the art. Several different conventional methods may be used to count the bacteria. It may be done by incubating the sonicated bacteria, taking serial dilutions and visually counting the colony forming units, or automated methods may be used, as for example using an optical reader to determine optical density. […] In the case of using vital dye technology, the biofilm need not be further incubated. In a further embodiment, the assay may be carried out by sonicating the cells until they lyse and release ATP and then adding luciferase to produce a mechanically readable light output. In a still further embodiment, the assay may be carried out directly on the biofilm on the projections using a confocal microscope, although it should be considered that this is difficult to automate. […] Examples are given to show a comparison between counts of planktonic bacteria and counts of sessile bacteria for the same growth conditions. […] The antibiotic was applied to the wells 2-12 of the rows A-G of a 96 well plate as follows: well 2: no antibiotic, well 3: 1000 μg/mL, well 4: 500 μg/mL . . . well 12: 2 μg/mL.

Escherichia coli biofilm [2] = assay: Escherichia coli biofilm on projections, antibiotic treatment, manual cfu count; format: cell-based
Method: as §1, with “(10^−1” for “(10^-1”, “10^−6)” for “10^-6)”, “The initial biofilm was colonized for four hours. The” for “The”, “A-H” for “A-G”, “μg/mL. 250 μL final volume of diluted antibiotic was applied to the wells.” for “μg/mL.”

[3] = test system: Escherichia coli planktonic bacteria; assay: Escherichia coli planktonic bacteria, optical density reading of turbidity; format: cell-based; details: 490 nm
Method: (§2) Up to 8 different antibiotics or biocides can be tested by using 1 row (A-H) for each antimicrobial reagent. […] Rinse the remaining projections in PBS using a troughed vessel 20 and place the colonized projections into the 96 well antibiotic plate and incubate overnight at 37° C.

[4] = test system: staphylococcus epidermidis biofilm; assay: staphylococcus epidermidis biofilm, optical density reading of turbidity; format: cell-based; details: 490 nm
Method: (§3) Up to 8 different antibiotics or biocides can be tested by using 1 row (A-H) for each antimicrobial reagent. […] Rinse the remaining projections in PBS using a troughed vessel 20 and place the colonized projections into the 96 well antibiotic plate and incubate overnight at 37° C. […] (3) From the freshly sonicated plate remove 0.02 ml of the medium from each well and spot plate neat; and 0.025 ml from each well to prepare a serial dilution (10^−1 to 10^−6) and spot plate 0.02 ml (dilutions can be done in microtiter plates, one for each antibiotic). Place the plate containing the remaining medium and bacteria to incubate at 37° C., overnight. Day 4: Assay the sessile survival, by for example reading the plate incubated overnight at 490 nm or by counting the colonies on the plates to determine the actual number of surviving bacteria, or by using some other method known in the art.

[5] = test system: staphylococcus epidermidis planktonic bacteria; assay: staphylococcus epidermidis planktonic bacteria, optical density reading of turbidity; format: cell-based; details: 490 nm
Method: as §2

Escherichia coli biofilm [6] = assay: Escherichia coli biofilm, optical density reading of turbidity; format: cell-based; details: 490 nm
Method: as §3

[7] = test system: staph. aureus planktonic bacteria; assay: staph. aureus planktonic bacteria, optical density reading of turbidity; format: cell-based, staphylococcus aureus; details: 490 nm
Method: as §2

staph. aureus biofilm = assay: staph. aureus biofilm, optical density reading of turbidity; format: cell-based, staphylococcus aureus; details: 490 nm
Method: as §3

[8] = well 5 of doubling dilutions, well 3: 1000 μg/mL to well 12: 2 μg/mL
[9] = well 6 of doubling dilutions, well 3: 1000 μg/mL to well 12: 2 μg/mL ([…] implied)
[10] = well 7 of doubling dilutions, well 3: 1000 μg/mL to well 12: 2 μg/mL
[11] = well 8 of doubling dilutions, well 3: 1000 μg/mL to well 12: 2 μg/mL
[12] = well 9 of doubling dilutions, well 3: 1000 μg/mL to well 12: 2 μg/mL
[13] = well 10 of doubling dilutions, well 3: 1000 μg/mL to well 12: 2 μg/mL ([…] implied)
[14] = well 11 of doubling dilutions, well 3: 1000 μg/mL to well 12: 2 μg/mL
[15] = well 3: 1000 μg/mL antibiotic, biofilm colonized four hours
[16] = well 4: 500 μg/mL antibiotic, biofilm colonized four hours

SMILES: O=C(O)c1cn(C2CC2)c2cc(N3CCNCC3)c(F)cc2c1=O [G, Ciprofloxacin]
- manually counted cfu, staphylococcus aureus biofilm ([1]; well 3: 1000 μg/mL antibiotic): 0 cfu
- manually counted cfu, staphylococcus aureus biofilm ([1]; well 4: 500 μg/mL antibiotic): 0 cfu
- manually counted cfu, staphylococcus aureus biofilm [1, 8]: 0 cfu
- manually counted cfu, staphylococcus aureus biofilm [1, 9]: 50 cfu
- manually counted cfu, staphylococcus aureus biofilm [1, 10]: 1.0 × 10^2 cfu
- manually counted cfu, staphylococcus aureus biofilm [1, 11]: 50 cfu
- manually counted cfu, staphylococcus aureus biofilm [1, 12]: 0 cfu
- manually counted cfu, staphylococcus aureus biofilm [1, 13]: 0 cfu
- manually counted cfu, staphylococcus aureus biofilm [1, 14]: 0 cfu
- manually counted cfu, staphylococcus aureus biofilm ([1]; well 12: 2 μg/mL antibiotic): 0 cfu
- manually counted cfu, Escherichia coli biofilm (Escherichia coli biofilm [2]; [15]): 0 cfu
- manually counted cfu, Escherichia coli biofilm (Escherichia coli biofilm [2]; [16]): 0 cfu
- manually counted cfu, Escherichia coli biofilm (Escherichia coli biofilm [2]; [8]): 0 cfu
- manually counted cfu, Escherichia coli biofilm (Escherichia coli biofilm [2]; [9]): 0 cfu
- manually counted cfu, Escherichia coli biofilm (Escherichia coli biofilm [2]; [10]): 0 cfu
- manually counted cfu, Escherichia coli biofilm (Escherichia coli biofilm [2]; [11]): 0 cfu
- manually counted cfu, Escherichia coli biofilm (Escherichia coli biofilm [2]; [13]): 0 cfu
- manually counted cfu, Escherichia coli biofilm (Escherichia coli biofilm [2]; [14]): 0 cfu

SMILES: CC(C)(O/N=C(\C(=O)N[C@@H]1C(=O)N2C(C(=O)[O-])=C(C[n+]3ccccc3)CS[C@H]12)c1csc(N)n1)C(=O)O [F, ceftazidine]
- optical density reading of turbidity, Escherichia coli planktonic bacteria ([3]; well 3: 1000 μg/mL antibiotic): .123
- optical density reading of turbidity, Escherichia coli planktonic bacteria ([3]; well 4: 500 μg/mL antibiotic): .129
- optical density reading of turbidity, Escherichia coli planktonic bacteria [3, 8]: .134
- optical density reading of turbidity, Escherichia coli planktonic bacteria [3, 9]: .137
- optical density reading of turbidity, Escherichia coli planktonic bacteria [3, 10]: .128
- optical density reading of turbidity, Escherichia coli planktonic bacteria [3, 11]: .137
- optical density reading of turbidity, Escherichia coli planktonic bacteria [3, 12]: .137
- optical density reading of turbidity, Escherichia coli planktonic bacteria [3, 13]: .140
- optical density reading of turbidity, Escherichia coli planktonic bacteria [3, 14]: .147
- optical density reading of turbidity, Escherichia coli planktonic bacteria ([3]; well 12: 2 μg/mL antibiotic): .152
- manually counted cfu, staphylococcus aureus biofilm ([1]; well 3: 1000 μg/mL antibiotic): 0 cfu
- manually counted cfu, staphylococcus aureus biofilm ([1]; well 4: 500 μg/mL antibiotic): 1.0 × 10^2 cfu
- manually counted cfu, staphylococcus aureus biofilm [1, 8]: 0 cfu
- manually counted cfu, staphylococcus aureus biofilm [1, 9]: 1.0 × 10^2 cfu
- manually counted cfu, staphylococcus aureus biofilm [1, 10]: 50 cfu
- manually counted cfu, staphylococcus aureus biofilm [1, 11]: 0 cfu
- manually counted cfu, staphylococcus aureus biofilm [1, 12]: 0 cfu
- manually counted cfu, staphylococcus aureus biofilm [1, 13]: 1.0 × 10^5 cfu
- manually counted cfu, staphylococcus aureus biofilm [1, 14]: 4.0 × 10^5 cfu
- manually counted cfu, staphylococcus aureus biofilm ([1]; well 12: 2 μg/mL antibiotic): 9.0 × 10^5 cfu
- optical density reading of turbidity, staphylococcus epidermidis biofilm ([4]; well 3: 1000 μg/mL antibiotic): .897
- optical density reading of turbidity, staphylococcus epidermidis biofilm ([4]; well 4: 500 μg/mL antibiotic): .888
- optical density reading of turbidity, staphylococcus epidermidis biofilm [4, 8]: 1.013
- optical density reading of turbidity, staphylococcus epidermidis biofilm [4, 9]: .855
- optical density reading of turbidity, staphylococcus epidermidis biofilm [4, 10]: .992
- optical density reading of turbidity, staphylococcus epidermidis biofilm [4, 11]: .903
- optical density reading of turbidity, staphylococcus epidermidis biofilm [4, 12]: .920
- optical density reading of turbidity, staphylococcus epidermidis biofilm [4, 13]: .850
- optical density reading of turbidity, staphylococcus epidermidis biofilm [4, 14]: .843
- optical density reading of turbidity, staphylococcus epidermidis biofilm ([4]; well 12: 2 μg/mL antibiotic): .902
- optical density reading of turbidity, staphylococcus epidermidis planktonic bacteria ([5]; well 3: 1000 μg/mL antibiotic): .359
- optical density reading of turbidity, staphylococcus epidermidis planktonic bacteria ([5]; well 4: 500 μg/mL antibiotic): .383
- optical density reading of turbidity, staphylococcus epidermidis planktonic bacteria [5, 8]: .397
- optical density reading of turbidity, staphylococcus epidermidis planktonic bacteria [5, 9]: .410
- optical density reading of turbidity, staphylococcus epidermidis planktonic bacteria [5, 10]: .466
- optical density reading of turbidity, staphylococcus epidermidis planktonic bacteria [5, 11]: .540
- optical density reading of turbidity, staphylococcus epidermidis planktonic bacteria [5, 12]: .615
- optical density reading of turbidity, staphylococcus epidermidis planktonic bacteria [5, 13]: .627
- optical density reading of turbidity, staphylococcus epidermidis planktonic bacteria [5, 14]: .694
- optical density reading of turbidity, staphylococcus epidermidis planktonic bacteria ([5]; well 12: 2 μg/mL antibiotic): .853
- optical density reading of turbidity, Escherichia coli biofilm (Escherichia coli biofilm [6]; well 3: 1000 μg/mL antibiotic): .121
- optical density reading of turbidity, Escherichia coli biofilm (Escherichia coli biofilm [6]; well 4: 500 μg/mL antibiotic): .123
- optical density reading of turbidity, Escherichia coli biofilm (Escherichia coli biofilm [6]; [8]): 1.158
- optical density reading of turbidity, Escherichia coli biofilm (Escherichia coli biofilm [6]; [9]): .121
- optical density reading of turbidity, Escherichia coli biofilm (Escherichia coli biofilm [6]; [11]): .120
- optical density reading of turbidity, Escherichia coli biofilm (Escherichia coli biofilm [6]; [12]): .123
- optical density reading of turbidity, Escherichia coli biofilm (Escherichia coli biofilm [6]; [13]): 1.152
- optical density reading of turbidity, Escherichia coli biofilm (Escherichia coli biofilm [6]; [14]): 1.249
- optical density reading of turbidity, Escherichia coli biofilm (Escherichia coli biofilm [6]; well 12: 2 μg/mL antibiotic): 1.268
- manually counted cfu, Escherichia coli biofilm (Escherichia coli biofilm [2]; [15]): 0 cfu
- manually counted cfu, Escherichia coli biofilm (Escherichia coli biofilm [2]; [16]): 0 cfu
- manually counted cfu, Escherichia coli biofilm (Escherichia coli biofilm [2]; [8]): 0 cfu
- manually counted cfu, Escherichia coli biofilm (Escherichia coli biofilm [2]; [9]): 0 cfu
- manually counted cfu, Escherichia coli biofilm (Escherichia coli biofilm [2]; [10]): 0 cfu
- manually counted cfu, Escherichia coli biofilm (Escherichia coli biofilm [2]; [11]): 0 cfu
- manually counted cfu, Escherichia coli biofilm (Escherichia coli biofilm [2]; [12]): 0 cfu
- optical density reading of turbidity, staph. aureus planktonic bacteria ([7]; well 3: 1000 μg/mL antibiotic): .073
- optical density reading of turbidity, staph. aureus planktonic bacteria ([7]; well 4: 500 μg/mL antibiotic): .076
- optical density reading of turbidity, staph. aureus planktonic bacteria [7, 8]: .081
- optical density reading of turbidity, staph. aureus planktonic bacteria [7, 9]: .079
- optical density reading of turbidity, staph. aureus planktonic bacteria [7, 10]: .076
- optical density reading of turbidity, staph. aureus planktonic bacteria [7, 11]: .079
- optical density reading of turbidity, staph. aureus planktonic bacteria [7, 12]: .078
- optical density reading of turbidity, staph. aureus planktonic bacteria [7, 13]: .111
- optical density reading of turbidity, staph. aureus planktonic bacteria [7, 14]: .564
- optical density reading of turbidity, staph. aureus planktonic bacteria ([7]; well 12: 2 μg/mL antibiotic): .717
- optical density reading of turbidity, staph. aureus biofilm (staph. aureus biofilm; well 3: 1000 μg/mL antibiotic): .779
- optical density reading of turbidity, staph. aureus biofilm (staph. aureus biofilm; well 4: 500 μg/mL antibiotic): .830
- optical density reading of turbidity, staph. aureus biofilm (staph. aureus biofilm; [8]): .777
- optical density reading of turbidity, staph. aureus biofilm (staph. aureus biofilm; [9]): .739
- optical density reading of turbidity, staph. aureus biofilm (staph. aureus biofilm; [10]): .719
- optical density reading of turbidity, staph. aureus biofilm (staph. aureus biofilm; [11]): .840
- optical density reading of turbidity, staph. aureus biofilm (staph. aureus biofilm; [12]): .806
- optical density reading of turbidity, staph. aureus biofilm (staph. aureus biofilm; [13]): .882
- optical density reading of turbidity, staph. aureus biofilm (staph. aureus biofilm; [14]): .924
- optical density reading of turbidity, staph. aureus biofilm (staph. aureus biofilm; well 12: 2 μg/mL antibiotic): .916
